Here are results for 17 compounds from patent US20260355196A1, “INHIBITORS AND DEGRADERS OF PIP4K PROTEIN” (Larkspur Biosciences, Inc., priority 2023, published 2026).

Molecules are shown by their SMILES.

The assay deals with T1, PIP4K2C (Homo sapiens, UniProt Q8TBX8).
T1 sequence (Q8TBX8 1-421): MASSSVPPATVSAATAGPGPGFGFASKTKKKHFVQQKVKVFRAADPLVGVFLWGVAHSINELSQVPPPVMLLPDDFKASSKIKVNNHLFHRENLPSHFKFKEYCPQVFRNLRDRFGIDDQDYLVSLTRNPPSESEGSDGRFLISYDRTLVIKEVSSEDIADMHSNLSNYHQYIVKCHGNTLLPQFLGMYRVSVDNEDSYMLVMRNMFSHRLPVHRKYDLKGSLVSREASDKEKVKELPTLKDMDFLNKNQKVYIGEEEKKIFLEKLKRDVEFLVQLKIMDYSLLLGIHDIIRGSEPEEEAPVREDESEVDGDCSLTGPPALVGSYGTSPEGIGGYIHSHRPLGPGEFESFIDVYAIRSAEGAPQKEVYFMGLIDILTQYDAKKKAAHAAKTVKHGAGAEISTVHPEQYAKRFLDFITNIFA
Briefly: HiBiT PIP4K2C degradation assay in MOLT-4 cells (endogenous PIP4K2C C-terminally tagged with HiBiT). The assay is classed as cell-based. Also noted: untagged in primary human PBMCs and monocyte-derived dendritic cells. To be noted: 6 hours of incubation time, rather than 24 hours; MOLT-4, top concentration 10 micromolar; read-out: HiBIT-degradation MOLT4 PIP4k2C DC50 (6 hours, marked *). In a few lines:
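Endogenous PIP4K2C was C-terminally HiBiT-tagged by CRISPR-Cas9 in MOLT-4 cells, which were treated with a 10-point, 3-fold dilution series from 10 micromolar in duplicate for 24 or 6 hours at 37 C. Remaining protein was read by HiBiT lytic luminescence, and DC50 came from a Hill fit.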
(The HiBiT peptide binds its large partner to form an active luciferase.)
In the case of `O=C1CCC(Nc2ccc(C3CCN([C@H]4CC[C@H](C(=O)N[C@H]5CC[C@H](Nc6ncc(F)c(-c7cccc(C8CC8)c7)n6)CC5)CC4)CC3)c(F)c2)C(=O)N1` (stereo partly drawn) [Compound 558, trans-(1r,4R)—N-((1r,4R)-4-((4-(3-cyclopropylphenyl)-5-fluoropyrimidin-2-yl)amino)cyclohexyl)-4-(4-(4-((2,6-dioxopiperidin-3-yl)amino)-2-fluorophenyl)piperidin-1-yl)cyclohexane-1-carboxamide], the DC50 was less than 500 nM.
The value for `O=C1CCC(Nc2ccc(N3CCN([C@H]4CC[C@H](C(=O)N[C@H]5CC[C@H](Nc6ncc(F)c(-c7cccc(C8CC8)c7)n6)CC5)CC4)CC3)c(F)c2)C(=O)N1` (stereo partly drawn) [Compound 559, trans-N-(trans-4-((4-(3-cyclopropylphenyl)-5-fluoropyrimidin-2-yl)amino)cyclohexyl)-4-(4-(4-((2,6-dioxopiperidin-3-yl)amino)-2-fluorophenyl)piperazin-1-yl)cyclohexane-1-carboxamide] was less than 500 nM; that for `O=C1CCC(Nc2ccc(N3CCN(C[C@H]4CC[C@H](CC(=O)N[C@H]5CC[C@H](Nc6ncc(F)c(-c7cccc(N8CCCCC8=O)c7)n6)CC5)CC4)CC3)c(F)c2)C(=O)N1` (stereo partly drawn) [Compound 560, trans-2-((1r,4R)-4-((4-(4-((2,6-dioxopiperidin-3-yl)amino)-2-fluorophenyl)piperazin-1-yl)methyl)cyclohexyl)-N-((1r,4R)-4-((5-fluoro-4-(3-(2-oxopiperidin-1-yl)phenyl)pyrimidin-2-yl)amino)cyclohexyl)acetamide] was less than 500 nM; that for `O=C1CCC(Nc2ccc(N3CCN(C[C@H]4CC[C@H](CC(=O)N[C@H]5CC[C@H](Nc6ncc(F)c(-c7cccc(N8CCCOC8=O)c7)n6)CC5)CC4)CC3)c(F)c2)C(=O)N1` (stereo partly drawn) [Compound 561, trans-2-((1r,4R)-4-((4-(4-((2,6-dioxopiperidin-3-yl)amino)-2-fluorophenyl)piperazin-1-yl)methyl)cyclohexyl)-N-((1r,4R)-4-((5-fluoro-4-(3-(2-oxo-1,3-oxazinan-3-yl)phenyl)pyrimidin-2-yl)amino)cyclohexyl)acetamide] was less than 500 nM.
The value for `O=C1CCC(Nc2ccc(N3CCN(C[C@H]4CC[C@H](CC(=O)N[C@H]5CC[C@H](Nc6ncc(F)c(-c7cccc(N8CCOCC8=O)c7)n6)CC5)CC4)CC3)c(F)c2)C(=O)N1` (stereo partly drawn) [Compound 562, trans-2-((1r,4R)-4-((4-(4-((2,6-dioxopiperidin-3-yl)amino)-2-fluorophenyl)piperazin-1-yl)methyl)cyclohexyl)-N-((1r,4R)-4-((5-fluoro-4-(3-(3-oxomorpholino)phenyl)pyrimidin-2-yl)amino)cyclohexyl)acetamide] was less than 500 nM; that for `O=C1CCC(Nc2ccc(C3CCN([C@H]4CC[C@H](NC(=O)[C@H]5CC[C@H](Nc6ncc(F)c(-c7cccc(N8CCCOC8=O)c7)n6)CC5)CC4)CC3)c(F)c2)C(=O)N1` (stereo partly drawn) [Compound 563, trans-N-(trans-4-(4-(4-((2,6-dioxopiperidin-3-yl)amino)-2-fluorophenyl)piperidin-1-yl)cyclohexyl)-4-((5-fluoro-4-(3-(2-oxo-1,3-oxazinan-3-yl)phenyl)pyrimidin-2-yl)amino)cyclohexane-1-carboxamide] was less than 500 nM; that for `O=C1CCC(Nc2ccc(N3CCN([C@H]4CC[C@H](NC(=O)[C@H]5CC[C@H](Nc6ncc(F)c(-c7cccc(N8CCCCC8=O)c7)n6)CC5)CC4)CC3)c(F)c2)C(=O)N1` (stereo partly drawn) [Compound 564, (1r,4R)—N-((1r,4R)-4-(4-(4-((2,6-dioxopiperidin-3-yl)amino)-2-fluorophenyl)piperazin-1-yl)cyclohexyl)-4-((5-fluoro-4-(3-(2-oxopiperidin-1-yl)phenyl)pyrimidin-2-yl)amino)cyclohexane-1-carboxamide] was less than 500 nM.
The value for `O=C1CCC(Nc2ccc(C3CCN([C@H]4CC[C@H](NC(=O)[C@H]5CC[C@H](Nc6ncc(F)c(-c7cccc(N8CCCCC8=O)c7)n6)CC5)CC4)CC3)c(F)c2)C(=O)N1` (stereo partly drawn) [Compound 565, trans-N-(trans-4-(4-(4-((2,6-dioxopiperidin-3-yl)amino)-2-fluorophenyl)piperidin-1-yl)cyclohexyl)-4-((5-fluoro-4-(3-(2-oxopiperidin-1-yl)phenyl)pyrimidin-2-yl)amino)cyclohexane-1-carboxamide] was less than 500 nM; that for `O=C1CCC(Nc2ccc(C3CCN([C@H]4CC[C@H](C(=O)N[C@H]5CC[C@H](Nc6ncc(F)c(-c7cccc(N8CCCCC8=O)n7)n6)CC5)CC4)CC3)c(F)c2)C(=O)N1` (stereo partly drawn) [Compound 566, trans-(1r,4R)-4-(4-(4-((2,6-dioxopiperidin-3-yl)amino)-2-fluorophenyl)piperidin-1-yl)-N-((1r,4R)-4-((5-fluoro-4-(6-(2-oxopiperidin-1-yl)pyridin-2-yl)pyrimidin-2-yl)amino)cyclohexyl)cyclohexane-1-carboxamide] was less than 500 nM; that for `O=C1CCC(Nc2ccc(C3CCN([C@H]4CC[C@H](C(=O)N[C@H]5CC[C@H](Nc6ncc(F)c(-c7cccc(-n8ccccc8=O)n7)n6)CC5)CC4)CC3)c(F)c2)C(=O)N1` (stereo partly drawn) [Compound 567, trans-(1r,4R)-4-(4-(4-((2,6-dioxopiperidin-3-yl)amino)-2-fluorophenyl)piperidin-1-yl)-N-((1r,4R)-4-((5-fluoro-4-(2-oxo-2H-[1,2′-bipyridin]-6′-yl)pyrimidin-2-yl)amino)cyclohexyl)cyclohexane-1-carboxamide] was less than 500 nM.
For the compound `O=C1CCC(Nc2ccc(C3CCN([C@H]4CC[C@H](C(=O)N[C@H]5CC[C@H](Nc6ncc(F)c(-c7cccc(N8CCOCC8=O)c7)n6)CC5)CC4)CC3)c(F)c2)C(=O)N1` (stereo partly drawn) [Compound 568, trans-(1r,4R)-4-(4-(4-((2,6-dioxopiperidin-3-yl)amino)-2-fluorophenyl)piperidin-1-yl)-N-((1r,4R)-4-((5-fluoro-4-(3-(3-oxomorpholino)phenyl)pyrimidin-2-yl)amino)cyclohexyl)cyclohexane-1-carboxamide], the half-maximal degradation concentration (DC50) was less than 500 nM.
The value for `O=C1CCC(Nc2ccc(C3CCN([C@H]4CC[C@H](C(=O)N[C@H]5CC[C@H](Nc6ncc(F)c(-c7ccnc(C8(O)CCC8)c7)n6)CC5)CC4)CC3)c(F)c2)C(=O)N1` (stereo partly drawn) [Compound 569, trans-(1r,4R)-4-(4-(4-((2,6-dioxopiperidin-3-yl)amino)-2-fluorophenyl)piperidin-1-yl)-N-((1r,4R)-4-((5-fluoro-4-(2-(1-hydroxycyclobutyl)pyridin-4-yl)pyrimidin-2-yl)amino)cyclohexyl)cyclohexane-1-carboxamide] was less than 500 nM; that for `O=C1CCC(Nc2ccc(C3CCN([C@H]4CC[C@H](C(=O)N[C@H]5CC[C@H](Nc6ncc(F)c(-c7ccnc(N8CCOCC8=O)c7)n6)CC5)CC4)CC3)c(F)c2)C(=O)N1` (stereo partly drawn) [Compound 570, trans-(1r,4R)-4-(4-(4-((2,6-dioxopiperidin-3-yl)amino)-2-fluorophenyl)piperidin-1-yl)-N-((1r,4R)-4-((5-fluoro-4-(2-(3-oxomorpholino)pyridin-4-yl)pyrimidin-2-yl)amino)cyclohexyl)cyclohexane-1-carboxamide] was less than 500 nM; that for `O=C1CCC(Nc2ccc(C3CCN([C@H]4CC[C@H](C(=O)N[C@H]5CC[C@H](Nc6ncc(F)c(-c7ccnc(N8CCCCC8=O)c7)n6)CC5)CC4)CC3)c(F)c2)C(=O)N1` (stereo partly drawn) [Compound 571, trans-(1r,4R)-4-(4-(4-((2,6-dioxopiperidin-3-yl)amino)-2-fluorophenyl)piperidin-1-yl)-N-((1r,4R)-4-((5-fluoro-4-(2-(2-oxopiperidin-1-yl)pyridin-4-yl)pyrimidin-2-yl)amino)cyclohexyl)cyclohexane-1-carboxamide] was less than 500 nM.
The value for `O=C1CCC(Nc2ccc(C3CCN([C@H]4CC[C@H](C(=O)N[C@H]5CC[C@H](Nc6ncc(F)c(-c7ccnc(N8CCCOC8=O)c7)n6)CC5)CC4)CC3)c(F)c2)C(=O)N1` (stereo partly drawn) [Compound 572, trans-(1r,4R)-4-(4-(4-((2,6-dioxopiperidin-3-yl)amino)-2-fluorophenyl)piperidin-1-yl)-N-((1r,4R)-4-((5-fluoro-4-(2-(2-oxo-1,3-oxazinan-3-yl)pyridin-4-yl)pyrimidin-2-yl)amino)cyclohexyl)cyclohexane-1-carboxamide] was less than 500 nM.
Turning to `O=C1CCC(Nc2ccc(C3CCN([C@H]4CC[C@H](C(=O)N[C@H]5CC[C@H](Nc6ncc(F)c(-c7ccnc(-n8ccccc8=O)c7)n6)CC5)CC4)CC3)c(F)c2)C(=O)N1` (stereo partly drawn) [Compound 573, trans-(1r,4R)-4-(4-(4-((2,6-dioxopiperidin-3-yl)amino)-2-fluorophenyl)piperidin-1-yl)-N-((1r,4R)-4-((5-fluoro-4-(2-oxo-2H-[1,2′-bipyridin]-4′-yl)pyrimidin-2-yl)amino)cyclohexyl)cyclohexane-1-carboxamide], the DC50 is less than 500 nM.
With `Cc1ccc(=O)n(-c2cccc(-c3nc(N[C@H]4CC[C@H](NC(=O)[C@H]5CC[C@H](N6CCC(c7ccc(NC8CCC(=O)NC8=O)cc7F)CC6)CC5)CC4)ncc3F)c2)c1` (stereo partly drawn) [Compound 574, trans-(1r,4R)-4-(4-(4-((2,6-dioxopiperidin-3-yl)amino)-2-fluorophenyl)piperidin-1-yl)-N-((1r,4R)-4-((5-fluoro-4-(3-(5-methyl-2-oxopyridin-1 (2H)-yl)phenyl)pyrimidin-2-yl)amino)cyclohexyl)cyclohexane-1-carboxamide] the figure was less than 500 nM.

As usually defined, the DC50 is the concentration at which degradation of the target reaches its halfway point.
